In patent publication US10723723B2, “Substituted bicycle heterocyclic derivatives useful as ROMK channel inhibitors” (BRISTOL-MYERS SQUIBB COMPANY, priority 2016, dated 2020):

Key:
hROMK (human Kir1.1) = hROMK (human Kir1.1) (Homo sapiens (Human), UniProt P48048); assay: Thallium Flux Assay (FluxOR, CHO T-Rex hROMK stable cell line); format: cell-based; details: CHO T-Rex hROMK cells, 10-point concentration response curve; read-out: Human ROMK TH Flux IC50
hERG channels = hERG channels (Homo sapiens (Human), UniProt Q12809); assay: hERG Manual Patch Clamp Assay (HEK 293 cells stably expressing hERG channels); format: cell-based; details: human, HEK 293 cells stably expressing hERG channels, pH 7.4
Chain of hERG channels (Q12809 whole entry): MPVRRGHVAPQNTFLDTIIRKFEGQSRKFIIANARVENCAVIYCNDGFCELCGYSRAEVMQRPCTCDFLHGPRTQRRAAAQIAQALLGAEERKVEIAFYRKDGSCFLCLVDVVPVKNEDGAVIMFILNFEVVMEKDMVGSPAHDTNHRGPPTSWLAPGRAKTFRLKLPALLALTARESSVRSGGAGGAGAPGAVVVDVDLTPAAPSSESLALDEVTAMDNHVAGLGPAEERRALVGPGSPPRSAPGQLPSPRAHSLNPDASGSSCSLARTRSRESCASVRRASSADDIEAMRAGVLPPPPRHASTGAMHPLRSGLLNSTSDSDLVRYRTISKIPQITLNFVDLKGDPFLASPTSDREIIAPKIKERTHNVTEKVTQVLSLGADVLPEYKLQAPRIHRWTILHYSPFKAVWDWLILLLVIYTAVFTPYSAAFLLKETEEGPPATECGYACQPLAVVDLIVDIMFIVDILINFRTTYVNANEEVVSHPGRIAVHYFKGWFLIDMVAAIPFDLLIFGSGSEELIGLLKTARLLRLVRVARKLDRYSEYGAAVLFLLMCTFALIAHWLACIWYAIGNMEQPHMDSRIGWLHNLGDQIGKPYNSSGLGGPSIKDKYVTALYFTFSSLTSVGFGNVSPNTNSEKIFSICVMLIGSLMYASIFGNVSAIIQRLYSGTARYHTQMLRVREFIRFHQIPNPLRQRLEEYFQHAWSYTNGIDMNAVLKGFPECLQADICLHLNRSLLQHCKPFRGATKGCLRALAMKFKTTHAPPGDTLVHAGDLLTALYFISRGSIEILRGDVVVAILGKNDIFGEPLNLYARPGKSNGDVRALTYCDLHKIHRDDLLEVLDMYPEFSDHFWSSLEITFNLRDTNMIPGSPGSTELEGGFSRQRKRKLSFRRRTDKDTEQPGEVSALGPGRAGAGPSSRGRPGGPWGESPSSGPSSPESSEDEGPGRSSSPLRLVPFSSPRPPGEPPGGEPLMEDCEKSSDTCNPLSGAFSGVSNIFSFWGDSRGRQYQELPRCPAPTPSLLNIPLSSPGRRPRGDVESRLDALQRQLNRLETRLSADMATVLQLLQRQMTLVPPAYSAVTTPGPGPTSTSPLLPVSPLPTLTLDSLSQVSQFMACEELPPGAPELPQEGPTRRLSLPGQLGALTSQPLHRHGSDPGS
Procedure: hERG electrophysiology assay: The experimental compounds were assessed for hERG activity on HEK 293 cells stably expressing hERG channels using patch clamp technique. Coverslips plated with hERG expressing cells were placed in the experimental chamber and were perfused with a solution composed of (in mM): 140 NaCl, 4 KCl, 1.8 CaCl2), 1 MgCl2, 10 Glucose, 10 HEPES (pH 7.4, NaOH) at room temperature. Borosilicate patch pipettes had tip resistances of 2-4 Mohms when filled with an internal solution containing: 130 KCl, 1 MgCl2, 1 CaCl2), 10 EGTA, 10 HEPES, 5 ATP-K2 (pH 7.2, KOH). The cells were clamped at −80 mV in whole cell configuration using an Axopatch 200B (Axon instruments, Union City, Calif.) patch clamp amplifier controlled by pClamp (Axon instruments) software. Upon formation of a gigaseal, the following voltage protocol was repeatedly (0.05 Hz) applied to record tail currents: depolarization step from −80 mV to +20 mV for 2 seconds followed by a hyperpolarization step to −65 mV (3 seconds) to elicit tail currents. Compounds were applied after stabilization of tail current. First, tail currents were recorded in presence of extracellular solution alone (control) and subsequently, in extracellular solution containing increasing compound concentrations. Each compound concentration was applied for 2-5 minutes. The percentage inhibition at each concentration was calculated as reduction in peak tail current with respect to the peak tail current recorded in the presence of control solution. Data analysis was performed in a custom made template. The percent inhibitions at different concentrations were plotted to obtain a concentration response curve, which was subsequently fitted with a four parameter equation to calculate hERG IC50 value.
A lower hERG % Inhibition value indicates less inhibition of the hERG current

Chain of hROMK (human Kir1.1) (P48048 whole entry): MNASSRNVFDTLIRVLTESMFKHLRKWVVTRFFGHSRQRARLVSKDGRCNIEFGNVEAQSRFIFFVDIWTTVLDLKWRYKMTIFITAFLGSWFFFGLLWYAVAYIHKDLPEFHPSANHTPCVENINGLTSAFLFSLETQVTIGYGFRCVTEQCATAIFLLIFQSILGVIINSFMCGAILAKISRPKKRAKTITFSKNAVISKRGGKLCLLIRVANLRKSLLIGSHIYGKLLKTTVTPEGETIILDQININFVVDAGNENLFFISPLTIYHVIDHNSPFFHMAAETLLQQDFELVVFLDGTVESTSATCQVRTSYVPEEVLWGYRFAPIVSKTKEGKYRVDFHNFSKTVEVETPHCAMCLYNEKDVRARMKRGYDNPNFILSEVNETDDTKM

| SMILES | IC50 (hROMK (human Kir1.1)) | inhibition at 1 µM (hERG channels) |
| --- | --- | --- |
| COC(=O)N[C@@H](CNCc1cnn(-c2cc(C)c(C#N)cn2)c1)c1ccc2c(c1C)COC2=O [Example 60, methyl (R)-(2-(((1-(5-cyano-4-methylpyridin-2-yl)-1H-pyrazol-4-yl)methyl)amino)-1-(4-methyl-1-oxo-1,3-dihydroisobenzofuran-5-yl)ethyl)carbamate] | 72 nM | 12% |
| Cc1cc(-n2cnc(CNC[C@H](O)c3ccc4c(c3C)COC4=O)c2)nc(C)c1C#N [Example 68, (R)-6-(4-(((2-hydroxy-2-(4-methyl-1-oxo-1,3-dihydroisobenzofuran-5-yl)ethyl)amino)methyl)-1H-imidazol-1-yl)-2,4-dimethylnicotinonitrile] | 38 nM | 17% |
| COc1cc(-n2cc(CNC[C@H](O)c3ccc4c(c3C)COC4=O)cn2)nc(C)c1C#N [Example 70, (R)-6-(4-(((2-hydroxy-2-(4-methyl-1-oxo-1,3-dihydroisobenzofuran-5-yl)ethyl)amino)methyl)-1H-pyrazol-1-yl)-4-methoxy-2-methylnicotinonitrile] | 19 nM | 27% |
| Cc1cc(-n2cc(CNC[C@H](O)c3ccc4c(c3C)COC4=O)cn2)nc(C)c1C#N [Example 71, (R)-6-(4-(((2-hydroxy-2-(4-methyl-1-oxo-1,3-dihydroisobenzofuran-5-yl)ethyl)amino)methyl)-1H-pyrazol-1-yl)-2,4-dimethylnicotinonitrile] | 22 nM | 39% |
| COc1nc(-n2cc(CNC[C@H](O)c3ccc4c(c3C)COC4=O)cn2)cc(C)c1C#N [Example 72, (R)-6-(4-(((2-hydroxy-2-(4-methyl-1-oxo-1,3-dihydroisobenzofuran-5-yl)ethyl)amino)methyl)-1H-pyrazol-1-yl)-2-methoxy-4-methylnicotinonitrile] | 14 nM | 35% |
| Cc1cc(-n2cc(CNC[C@H](O)c3ccc4c(c3C)COC4=O)cn2)cnc1C#N [Example 73, (R)-5-(4-(((2-hydroxy-2-(4-methyl-1-oxo-1,3-dihydroisobenzofuran-5-yl)ethyl)amino)methyl)-1H-pyrazol-1-yl)-3-methylpicolinonitrile] | 36 nM | 31% |
| Cc1cc(-n2cc(CNC[C@H](O)c3ccc4c(c3C)COC4=O)c(C)n2)ncc1C#N [Example 74, (R)-6-(4-(((2-hydroxy-2-(4-methyl-1-oxo-1,3-dihydroisobenzofuran-5-yl)ethyl)amino)methyl)-3-methyl-1H-pyrazol-1-yl)-4-methylnicotinonitrile] | 59 nM | 32% |
| Cc1c([C@@H](O)CNCc2cnn(-c3ccc4c(c3C)COC4=O)c2)ccc2c1COC2=O [Example 75, (R)-5-(1-hydroxy-2-(((1-(4-methyl-1-oxo-1,3-dihydroisobenzofuran-5-yl)-1H-pyrazol-4-yl)methyl)amino)ethyl)-4-methylisobenzofuran-1(3H)-one] | 65 nM | 4.3% |
| COc1cc(-c2ccc(CNC[C@H](O)c3ccc4c(c3C)COC4=O)c(OC)n2)ncc1C#N [Example 82, (R)-5′-(((2-hydroxy-2-(4-methyl-1-oxo-1,3-dihydroisobenzofuran-5-yl)ethyl)amino)methyl)-4,6′-dimethoxy-[2,2′-bipyridine]-5-carbonitrile] | 31 nM | 44% |
| Cc1ncn(-c2ncc(CNC[C@H](O)c3ccc4c(c3C)COC4=O)cn2)c1C [Example 88, (R)-5-(2-(((2-(4,5-dimethyl-1H-imidazol-1-yl)pyrimidin-5-yl)methyl)amino)-1-hydroxyethyl)-4-methylisobenzofuran-1(3H)-one] | 42 nM | 3.6% |
| Cc1cn(-c2ccc(CNC[C@H](O)c3ccc4c(c3C)COC4=O)cn2)nc1C#N [Example 92, (R)-1-(5-(((2-hydroxy-2-(4-methyl-1-oxo-1,3-dihydroisobenzofuran-5-yl)ethyl)amino)methyl)pyridin-2-yl)-4-methyl-1H-pyrazole-3-carbonitrile] | 6.4 nM | 24% |
| Cc1cc(-n2cc(CNC[C@H](O)c3ccc4c(c3C)COC4=O)c(C(F)F)n2)ncc1C#N [Example 93, (R)-6-(3-(difluoromethyl)-4-(((2-hydroxy-2-(4-methyl-1-oxo-1,3-dihydroisobenzofuran-5-yl)ethyl)amino)methyl)-1H-pyrazol-1-yl)-4-methylnicotinonitrile] | 15 nM | 29% |
| Cc1cn(-c2ncc(CNC[C@H](O)c3ccc4c(c3C)COC4=O)cn2)nc1C#N [Example 94, (R)-1-(5-(((2-hydroxy-2-(4-methyl-1-oxo-1,3-dihydroisobenzofuran-5-yl)ethyl)amino)methyl)pyrimidin-2-yl)-4-methyl-1H-pyrazole-3-carbonitrile] | 56 nM | 13% |
| Cc1c([C@@H](O)CNCc2cn(-c3ccc4oc(=O)n(C)c4c3)nc2C(F)(F)F)ccc2c1COC2=O [Example 95, (R)-5-(4-(((2-hydroxy-2-(4-methyl-1-oxo-1,3-dihydroisobenzofuran-5-yl)ethyl)amino)methyl)-3-(trifluoromethyl)-1H-pyrazol-1-yl)-3-methylbenzo[d]oxazol-2(3H)-one] | 56 nM | 11% |
| Cc1c([C@@H](O)CNCc2cnc(-n3cnc(C(F)(F)F)c3)nc2)ccc2c1COC2=O [Example 96, (R)-5-(1-hydroxy-2-(((2-(4-(trifluoromethyl)-1H-imidazol-1-yl)pyrimidin-5-yl)methyl)amino)ethyl)-4-methylisobenzofuran-1(3H)-one] | 62 nM | 19% |
| COc1nn(-c2ccc(CNC[C@H](O)c3ccc4c(c3C)COC4=O)cn2)cc1C#N [Example 104, (R)-1-(5-(((2-hydroxy-2-(4-methyl-1-oxo-1,3-dihydroisobenzofuran-5-yl)ethyl)amino)methyl)pyridin-2-yl)-3-methoxy-1H-pyrazole-4-carbonitrile] | 9.4 nM | 42% |
| Cc1c([C@@H](O)CNCc2ccc(-n3ccnc3)nc2)ccc2c1COC2=O [Example 109, (R)-5-(2-(((6-(1H-imidazol-1-yl)pyridin-3-yl)methyl)amino)-1-hydroxyethyl)-4-methylisobenzofuran-1(3H)-one] | 40 nM | 12% |
| Cc1c([C@@H](O)CNCc2cnc(-n3cc(C#N)c(C(F)(F)F)n3)nc2)ccc2c1COC2=O [Example 110, (R)-1-(5-(((2-hydroxy-2-(4-methyl-1-oxo-1,3-dihydroisobenzofuran-5-yl)ethyl)amino)methyl)pyrimidin-2-yl)-3-(trifluoromethyl)-1H-pyrazole-4-carbonitrile] | 42 nM | 13% |
| Cc1ncc(-c2ccc(CNC[C@H](O)c3ccc4c(c3C)COC4=O)cn2)s1 [Example 111, (R)-5-(1-hydroxy-2-(((6-(2-methylthiazol-5-yl)pyridin-3-yl)methyl)amino)ethyl)-4-methylisobenzofuran-1(3H)-one] | 48 nM | 69% |
| COc1cc(-n2cc(CNC[C@H](O)c3ccc4c(c3C)COC4=O)cn2)cc2c1oc(=O)n2C [Example 112, (R)-5-(4-(((2-hydroxy-2-(4-methyl-1-oxo-1,3-di-Hydroisobenzofuran-5-yl)ethyl)amino)methyl)-1H-pyrazol-1-yl)-7-methoxy-3-mthylbenzo[d]oxazol-2(3H)-one] | 66 nM | 4.2% |
| COc1nn(-c2ncc(CNC[C@H](O)c3ccc4c(c3C)COC4=O)cn2)cc1C#N [Example 113, (R)-1-(5-(((2-hydroxy-2-(4-methyl-1-oxo-1,3-dihydroisobenzofuran-5-yl)ethyl)amino)methyl)pyrimidin-2-yl)-3-methoxy-1H-pyrazole-4-carbonitrile] | 14 nM | 12% |
| CCc1nn(-c2ncc(CNC[C@H](O)c3ccc4c(c3C)COC4=O)cn2)cc1C#N [Example 114, (R)-3-ethyl-1-(5-(((2-hydroxy-2-(4-methyl-1-oxo-1,3-dihydroisobenzofuran-5-yl)ethyl)amino)methyl)pyrimidin-2-yl)-1H-pyrazole-4-carbonitrile] | 17 nM | 25% |
| Cc1c([C@@H](O)CNCc2cnc(-n3cc(C#N)c(C4CC4)n3)nc2)ccc2c1COC2=O [Example 117, (R)-3-cyclopropyl-1-(5-(((2-hydroxy-2-(4-methyl-1-oxo-1,3-dihydroisobenzofuran-5-yl)ethyl)amino)methyl)pyrimidin-2-yl)-1H-pyrazole-4-carbonitrile] | 24 nM | 32% |
| Cc1cn(-c2ccc(CNC[C@H](O)c3ccc4c(c3C)COC4=O)cn2)nn1 [Example 118, (R)-5-(1-hydroxy-2-(((6-(4-methyl-1H-1,2,3-triazol-1-yl)pyridin-3-yl)methyl)amino)ethyl)-4-methylisobenzofuran-1(3H)-one] | 70 nM | 16% |
| Cc1cc(-c2ncc(CNC[C@H](O)c3ccc4c(c3C)COC4=O)s2)ncc1C#N [Example 128, (R)-6-(5-(((2-hydroxy-2-(4-methyl-1-oxo-1,3-dihydroisobenzofuran-5-yl)ethyl)amino)methyl)thiazol-2-yl)-4-methylnicotinonitrile] | 6.6 nM | 22% |
| Cc1c([C@@H](O)CNCc2ccc(-n3cnc(C#N)c3)nc2)ccc2c1COC2=O [Example 131, (R)-1-(5-(((2-hydroxy-2-(4-methyl-1-oxo-1,3-dihydroisobenzofuran-5-yl)ethyl)amino)methyl)pyridin-2-yl)-1H-imidazole-4-carbonitrile] | 9.2 nM | 79% |
| Cc1c([C@@H](O)CNCc2ccc(-n3cnc(C#N)n3)nc2)ccc2c1COC2=O [Example 132, (R)-1-(5-(((2-hydroxy-2-(4-methyl-1-oxo-1,3-dihydroisobenzofuran-5-yl)ethyl)amino)methyl)pyridin-2-yl)-1H-1,2,4-triazole-3-carbonitrile] | 26 nM | 61% |
